Measured values published in patent US20260015322A1, “DELIVERY OF THERAPEUTIC ALKALOID COMPOUNDS” (priority 2022, published 2026).

Key:
[1] = Plasma Stability Assay (Example A3), rat plasma; format: in vitro ADME; details: 10 μM, 37° C., prodrug remaining
From the text: (§1) The data is represented in the table below.

[2] = Plasma Stability Assay (Example A3), human plasma; format: in vitro ADME; details: 10 μM, 37° C., prodrug remaining
From the text: as §1

[3] = Hydrolysis Assay - Condition 1 (SGF); format: physicochemical; details: Condition 1: SGF with pepsin pH 1.5, 37° C., 0.5 mM
Method: 50 uL of compound (10 mM) in DMSO was diluted into 950 uL of Simulated Gastric Fluid (SGF) with pepsin (pH 1.5) to a final concentration of 0.5 mM. The hydrolysis kinetics were conducted at 37° C. and measured by LCMS at a certain time interval.
(§2) The corresponding LCMS chromatogram were recorded and the conversions were calculated by integration of each peak.
(§3) • 1) LCMS spectra were obtained using Agilent 1200G1956A or SHIMADZU LCMS-2020. • Standard LCMS conditions were as follows (running time 1.55 minutes): • Acidic condition: Mobile Phase A: 0.0375% TFA in water (v/v). Mobile Phase B: 0.01875% TFA in acetonitrile (v/v); Column: Kinetex EVO C18 30*2.1 mm, 5 μm. • Basic condition: Mobile Phase A: 0.025% NH3·H2O in water (v/v). Mobile Phase B: Acetonitrile; Column: Kinetex EVO C18 2.1×30 mm, 5 μm. • 2) Conversion (%)=peak area 1/(peak area 1+peak area 2)*100%, peak area 1 is the integration of hydrolyzed product, peak area 2 is the integration of starting material.

[4] = Hydrolysis Assay - Condition 2 (DI Water); format: physicochemical; details: 25° C., 0.5 mM
Method: 50 uL of compound (10 mM) in DMSO was diluted into 950 uL of DI water to a final concentration of 0.5 mM. The hydrolysis kinetics were conducted at 25° C. and measured by LCMS at a certain time interval.
as §2, §3

[5] = Plasma Stability Assay (Example A2), mouse plasma; format: in vitro ADME; details: Mouse Plasma, 37° C., prodrug remaining
Method: (§4) Each test was carried out in duplicate for each time point; 0 min, 15 min, 30 min, 60 min, 120, 240 min. […]

[6] = Plasma Stability Assay (Example A2), human plasma; format: in vitro ADME; details: 37° C., prodrug remaining
Method: as §4

Structure (SMILES)	Conversion (%) ([3]; 1 min)	Conversion (%) ([3]; 5 min)	Conversion (%) ([3]; 30 min)	Conversion (%) ([3]; 1 h)	Conversion (%) ([3]; 4 h)	Conversion (%) ([3]; 24 h)	Conversion (%) ([4]; 1 min)	Conversion (%) ([4]; 5 min)	Conversion (%) ([4]; 30 min)	Conversion (%) ([4]; 1 h)	Conversion (%) ([4]; 4 h)	Conversion (%) ([4]; 24 h)	Prodrug (%) ([5]; 0 min)	Prodrug (%) ([5]; 15 min)	Prodrug (%) ([5]; 30 min)	Prodrug (%) ([5]; 60 min)	Prodrug (%) ([5]; 120 min)	Prodrug (%) ([5]; 240 min)	Prodrug (%) ([6]; 0 min)	Prodrug (%) ([6]; 15 min)	also measured
COc1ccc([C@@]23CCC(OP(=O)(O)OCOC(=O)OC(C)C)=C[C@@H]2N(C)CC3)cc1OC [Compound 410, [[(3aS,7aS)-3a-(3,4-dimethoxyphenyl)-1-methyl-3,4,5,7a-tetrahydro-2H-indol-6-yl]oxy-hydroxy-phosphoryl]oxymethyl isopropyl carbonate]	–	–	–	–	–	–	–	–	–	–	–	–	–	–	–	–	–	–	–	–	Prodrug (%) ([1]; 0 min): 100.0%; Prodrug (%) ([1]; 10 min): 63.0%; Prodrug (%) ([1]; 30 min): 25.4%; Prodrug (%) ([1]; 60 min): 7.1%; Prodrug (%) ([1]; 120 min): 0.52%; Prodrug (%) ([1]; 240 min): 0.01%; Prodrug (%) ([2]; 0 min): 100.0%; Prodrug (%) ([2]; 10 min): 96.3%; Prodrug (%) ([2]; 30 min): 98.8%; Prodrug (%) ([2]; 60 min): 92.7%; Prodrug (%) ([2]; 120 min): 88.2%; Prodrug (%) ([2]; 240 min): 75.5%
CCN(C)C(=O)OC1=C[C@@H]2N(C)CC[C@]2(c2ccc(OC)c(OC)c2)CC1 [Compound 326, [(3aS,7aS)-3a-(3,4-dimethoxyphenyl)-1-methyl-3,4,5,7a-tetrahydro-2H-indol-6-yl]N-ethyl-N-methyl-carbamate]	0	0	0	0	0	0	0	0	0	0	0	0	100.0	>99	96.6	>99	>99	98.5	100.0	98.2	Prodrug (%) ([6]; 30 min): 99.9%; Prodrug (%) ([6]; 60 min): 98.4%; Prodrug (%) ([6]; 120 min): >99%; Prodrug (%) ([6]; 240 min): 93.9%
COc1ccc([C@@]23CCC(OC(=O)N4CCN(C)CC4)=C[C@@H]2N(C)CC3)cc1OC [Compound 327, [(3aS,7aS)-3a-(3,4-dimethoxyphenyl)-1-methyl-3,4,5,7a-tetrahydro-2H-indol-6-yl]4-methylpiperazine-1-carboxylate]	0	0	0	0	0	0	0	0	0	0	0	0	100	>99	>99	>99	>99	>99	100	>99	Prodrug (%) ([6]; 30 min): 98.9%; Prodrug (%) ([6]; 60 min): >99%; Prodrug (%) ([6]; 120 min): >99%; Prodrug (%) ([6]; 240 min): 94.4%
COc1ccc([C@@]23CCC(OP(=O)(Oc4ccccc4)Oc4ccccc4)=C[C@@H]2N(C)CC3)cc1OC [Compound 320, [(3aS,7aS)-3a-(3,4-dimethoxyphenyl)-1-methyl-3,4,5,7a-tetrahydro-2H-indol-6-yl]diphenyl phosphate]	0	0	0	0	0	0	0	0	0	0	0	0	100	58.5	46.5	30.7	19.4	11.7	100	95.7	Prodrug (%) ([6]; 30 min): 98.5%; Prodrug (%) ([6]; 60 min): 95.7%; Prodrug (%) ([6]; 120 min): 98.2%; Prodrug (%) ([6]; 240 min): 95.3%
COc1ccc([C@@]23CCC(OP(=O)(O)O)=C[C@@H]2N(C)CC3)cc1OC [Compound 359, [(3aS,7aS)-3a-(3,4-dimethoxyphenyl)-1-methyl-3,4,5,7a-tetrahydro-2H-indol-6-yl] dihydrogen phosphate]	–	–	–	–	–	–	–	–	–	–	–	–	100	>99	82.7	79.0	50.7	59.1	100	69.0	Prodrug (%) ([6]; 30 min): 65.1%; Prodrug (%) ([6]; 60 min): 50.4%; Prodrug (%) ([6]; 120 min): 32.8%; Prodrug (%) ([6]; 240 min): 25.6%
COc1ccc([C@@]23CCC(OC(=O)N(C)C)=C[C@@H]2N(C)CC3)cc1OC [Compound 324, [(3aS,7aS)-3a-(3,4-dimethoxyphenyl)-1-methyl-3,4,5,7a-tetrahydro-2H-indol-6-yl] N,N-dimethylcarbamate]	0	0	0	0	0	0	0	0	0	0	0	0	100.0	97.4	94.4	94.9	92.6	88.9	100.0	98.2	Prodrug (%) ([6]; 30 min): 98.7%; Prodrug (%) ([6]; 60 min): >99%; Prodrug (%) ([6]; 120 min): >99%; Prodrug (%) ([6]; 240 min): 96.5%
COc1ccc([C@@]23CCC(OP(=O)(OCc4ccccc4)OCc4ccccc4)=C[C@@H]2N(C)CC3)cc1OC [Compound 319, [(3aS,7aS)-3a-(3,4-dimethoxyphenyl)-1-methyl-3,4,5,7a-tetrahydro-2H-indol-6-yl] dibenzyl phosphate]	2	5	25	26	60	61	2	4	5	10	20	59	–	–	–	–	–	–	–	–	–
